Results on 4 compounds are retold here after ChEMBL document CHEMBL1135758, “Toward a pharmacophore for drugs inducing the long QT syndrome: insights from a CoMFA study of HERG K(+) channel blockers” (J Med Chem, 2002).

Broadly, the IC50 is the midpoint of a concentration-inhibition curve. Higher therefore signals weaker potency.

For assay [1], the target named is T1, Voltage-gated inwardly rectifying potassium channel KCNH2 (Homo sapiens, UniProt Q12809). The experiment in a line: K+ channel blocking activity in Chinese hamster ovary cells expressing HERG Kv11.1. It counts as functional, cell-based.
T1 sequence (Q12809 whole entry): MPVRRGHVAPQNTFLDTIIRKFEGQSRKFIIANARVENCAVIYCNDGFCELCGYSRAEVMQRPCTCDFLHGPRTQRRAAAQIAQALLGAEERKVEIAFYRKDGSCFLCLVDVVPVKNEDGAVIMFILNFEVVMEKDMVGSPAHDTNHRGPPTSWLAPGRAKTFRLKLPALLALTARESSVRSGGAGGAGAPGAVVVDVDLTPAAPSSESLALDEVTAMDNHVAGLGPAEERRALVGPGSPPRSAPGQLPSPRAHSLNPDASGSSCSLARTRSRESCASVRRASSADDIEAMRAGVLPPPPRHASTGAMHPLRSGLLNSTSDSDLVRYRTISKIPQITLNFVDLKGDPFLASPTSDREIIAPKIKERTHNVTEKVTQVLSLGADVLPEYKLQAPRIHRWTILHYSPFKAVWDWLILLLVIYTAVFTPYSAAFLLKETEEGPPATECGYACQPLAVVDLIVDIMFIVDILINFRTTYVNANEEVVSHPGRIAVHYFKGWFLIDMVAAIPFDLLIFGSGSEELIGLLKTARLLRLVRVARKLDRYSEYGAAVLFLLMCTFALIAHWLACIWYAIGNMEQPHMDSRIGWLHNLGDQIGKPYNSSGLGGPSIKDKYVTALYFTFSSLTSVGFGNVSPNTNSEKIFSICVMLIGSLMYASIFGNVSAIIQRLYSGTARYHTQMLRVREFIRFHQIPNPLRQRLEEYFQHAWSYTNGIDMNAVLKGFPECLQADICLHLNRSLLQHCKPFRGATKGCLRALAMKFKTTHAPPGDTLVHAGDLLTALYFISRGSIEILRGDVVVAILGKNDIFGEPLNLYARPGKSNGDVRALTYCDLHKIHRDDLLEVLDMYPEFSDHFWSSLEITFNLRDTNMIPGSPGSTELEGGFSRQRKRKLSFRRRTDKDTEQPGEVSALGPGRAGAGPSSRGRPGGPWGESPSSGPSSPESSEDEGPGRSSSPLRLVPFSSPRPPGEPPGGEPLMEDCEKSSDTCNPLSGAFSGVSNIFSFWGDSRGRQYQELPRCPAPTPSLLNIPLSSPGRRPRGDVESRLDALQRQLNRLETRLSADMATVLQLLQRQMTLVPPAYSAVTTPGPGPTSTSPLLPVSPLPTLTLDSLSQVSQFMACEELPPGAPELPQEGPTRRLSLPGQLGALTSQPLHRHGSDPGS
The target of assay [2] is T1, Voltage-gated inwardly rectifying potassium channel KCNH2. The experiment in a line: (§1) K+ channel blocking activity in human embryonic kidney cells expressing HERG Kv11.1. It counts as functional, cell-based.
Assay [3] shares this target. The description is as §1.

`COc1c(N2CCNC(C)C2)c(F)cc2c(=O)c(C(=O)O)cn(C3CC3)c12` (centres undefined) [GATIFLOXACIN] came in with a 50% inhibitory concentration (IC50) in assay [1] of 130 µM.
Same read-out and setting: next, `CN1CCN(CCCCN2C(=O)CN(/N=C/c3ccc(-c4ccc(Cl)cc4)o3)C2=O)CC1` [AZIMILIDE]: 0.56 µM.
Regarding `C[C@@H]1CN(c2c(F)c(N)c3c(=O)c(C(=O)O)cn(C4CC4)c3c2F)C[C@H](C)N1` [SPARFLOXACIN], in assay [2], 34.4 µM corresponded to half-maximal inhibition (IC50).
On to `CN(c1nccc(=O)[nH]1)C1CCN(c2nc3ccccc3n2Cc2ccc(F)cc2)CC1` [MIZOLASTINE], for which half-maximal inhibition in assay [3] (IC50) was put at 0.35 µM.
